From US12180146B2, “Antihypertensive polyol compound and derivative thereof” (TAO PHARMACEUTICAL (SUZHOU) CO., LTD, priority 2020, dated 2024)

Test system: spontaneously hypertensive rats (SHR)
Assay: Antihypertensive activity test: blood pressure and heart rate of spontaneously hypertensive rats (SHR)
Assay type: in vivo, rat
Conditions: 200 mg/kg
Experimental: Tested Drugs: Compounds of the Invention. The dosage of all compound was uniformly set to 200 mg/kg.
In the test, changes in the blood pressure before and after the administration were detected, and compared with the basic value, a reduction of SBP ≥20 mmHg after administration was judged as effective antihypertensive effects; and at the same time, changes in the heart rate before and after the administration were detected.
Heart rate was expressed as mean±standard deviation (x±s). The changes of heart rate before and after the administration were compared by using Two-sample equal variance paired t test, and P<0.05 was regarded as the standard of statistically significant difference.

| Compound | SBP Difference before and after administration, 1 h | SHR blood pressure (SBP), time after administration 1 h (n = 8) | SBP Difference before and after administration, 2 h | SHR blood pressure (SBP), time after administration 2 h (n = 8) | SBP Difference before and after administration, 3 h | SHR blood pressure (SBP), time after administration 3 h (n = 8) | SBP Difference before and after administration, 4 h | SHR blood pressure (SBP), time after administration 4 h (n = 8) | SBP Difference before and after administration, 5 h | SHR blood pressure (SBP), time after administration 5 h (n = 8) | SBP Difference before and after administration, 6 h | SHR blood pressure (SBP), time after administration 6 h (n = 8) | SBP Difference before and after administration, 0 h (0 h) | SHR blood pressure (SBP), time after administration 0 h (0 h, n = 8) |
| --- | --- | --- | --- | --- | --- | --- | --- | --- | --- | --- | --- | --- | --- | --- |
| COc1ccc([C@@H](O)[C@H](C)O)cc1Cl [Compound 14] | 3 mmHg | 182 ± 11.6 mmHg | 7 mmHg | 178 ± 10.8 mmHg | 8 mmHg | 177 ± 10.9 mmHg | 5 mmHg | 18 ± 15.80 mmHg | 1 mmHg | 184 ± 16.0 mmHg | −1 mmHg | 186 ± 17.7 mmHg |  |  |
| CC(=O)OC(C)C(OC(C)=O)c1ccccc1 (centres unmarked) [Compound 15] | 14 mmHg | 176 ± 9.55 mmHg | 18 mmHg | 172 ± 7.36 mmHg | 21 mmHg | 169 ± 4.07 mmHg | 17 mmHg | 173 ± 7.15 mmHg | 15 mmHg | 175 ± 5.61 mmHg | 10 mmHg | 180 ± 6.66 mmHg |  |  |
| COc1ccc(C(O)C(=O)O)cc1 (centres unmarked) [Compound 17] | 9 mmHg | 186 ± 12.4 mmHg | 7 mmHg | 188 ± 12.0 mmHg | 14 mmHg | 181 ± 13.1 mmHg | 9 mmHg | 186 ± 11.4 mmHg | 15 mmHg | 180 ± 11.9 mmHg | 9 mmHg | 186 ± 10.1 mmHg | 0 mmHg |  |
| OCC(O)C(OC1OC(CO)C(O)C(O)C1O)c1ccc(O)cc1 (centres unmarked) [Compound 18] | 16 mmHg | 176 ± 6.39 mmHg | 18 mmHg | 174 ± 4.50 mmHg | 21 mmHg | 171 ± 9.15 mmHg | 19 mmHg | 173 ± 13.7 mmHg | 18 mmHg | 174 ± 15.9 mmHg | 14 mmHg | 178 ± 8.78 mmHg |  |  |
| CCOC(=O)OC(CO)c1cccc(CC)c1 (centres unmarked) [Compound 19] | 12 mmHg | 182 ± 11.6 mmHg | 16 mmHg | 178 ± 10.8 mmHg | 17 mmHg | 177 ± 10.9 mmHg | 13 mmHg | 181 ± 15.80 mmHg | 10 mmHg | 184 ± 16.0 mmHg | 8 mmHg | 186 ± 17.7 mmHg |  |  |
| COP(=O)(OC)OCC(O)c1ccccc1 (centres unmarked) [Compound 20] | 6 mmHg | 186 ± 9.55 mmHg | 10 mmHg | 182 ± 7.36 mmHg | 3 mmHg | 189 ± 4.07 mmHg | 9 mmHg | 183 ± 7.15 mmHg | 7 mmHg | 185 ± 5.61 mmHg | 2 mmHg | 190 ± 6.66 mmHg |  | 192 ± 7.98 mmHg |
| CC(C)(O)[C@H](O)[C@H](O)c1cccc2[nH]ccc12 [Compound 21] | 11 mmHg | 184 ± 10.6 mmHg | 13 mmHg | 182 ± 10.4 mmHg | 12 mmHg | 183 ± 9.90 mmHg | 17 mmHg | 178 ± 6.61 mmHg | 13 mmHg | 182 ± 7.25 mmHg | 11 mmHg | 184 ± 12.1 mmHg |  |  |
| CCc1cccc(C(O)COC(=O)[C@@H](C)N)c1 (some centres unmarked) [Compound 22] | 11 mmHg | 187 ± 6.39 mmHg | 14 mmHg | 184 ± 4.69 mmHg | 26 mmHg | 171 ± 12.14 mmHg | 25 mmHg | 173 ± 13.7 mmHg | 24 mmHg | 174 ± 15.9 mmHg | 20 mmHg | 178 ± 8.78 mmHg |  |  |
| CCc1cccc(C(CO)OC(=O)CN)c1 (centres unmarked) [Compound 23] | 10 mmHg | 186 ± 6.39 mmHg | 9 mmHg | 187 ± 4.66 mmHg | 15 mmHg | 181 ± 9.15 mmHg | 13 mmHg | 183 ± 13.7 mmHg | 18 mmHg | 178 ± 15.9 mmHg | 18 mmHg | 178 ± 8.78 mmHg |  |  |
| COc1cc(C(O)CO)ccc1O (centres unmarked) [Compound 25] | 8 mmHg | 191 ± 6.64 mmHg | 10 mmHg | 189 ± 7.77 mmHg | 11 mmHg | 186 ± 8.18 mmHg | 15 mmHg | 184 ± 4.56 mmHg | 12 mmHg | 187 ± 14.2 mmHg | 11 mmHg | 188 ± 5.55 mmHg |  |  |
